According to patent US6906042B2, “Micelles” (Eisai Co., Ltd., priority 2000, dated 2005):
Several values for one entry are separate records, joined by “and”; a condition that tells them apart may be missing. Equal entries are not always repeated.

Tests used:
[1] = Micelle hydrodynamic diameter of E5564 before lyophilization and after reconstitution, admixture and storage
Text: After lyophilization the micelles were reconstituted with water diluted in an aqueous dextrose solution (Table 2). […] (Table 2).

[2] = E5564 micelle hydrodynamic diameter before and after simulated I.V. infusion using administration equipment (DLS); conditions: simulated administration conditions using representative infusion equipment
Text: The following conditions apply to the data in Table 4: Microbore 60″ extension set with PVC free fluid path, No. V6212 (McGraw, Inc.); 3 cc syringe with Luer Lok, No. 309585 (Becton Dickenson); Injection site with Luer Lok, No. 2N1199 (Baxter); Needle, 20G 1, No. 305175 (Becton Dickenson); I.V. catheter, JELCO, No. 4050 (Johnson & Johnson Medical Inc.).

[3] = Micelle hydrodynamic diameter of E5564 through NaOH dissolution, lactose phosphate buffer, freeze-drying and re-hydration; conditions: upon freeze-drying
Text: This solution was then combined with a lactose containing phosphate buffer solution to yield a solution pH of 7-8. […] This solution was then filtered through a 0.2 μm filter to render the solution sterile in the manner conventional to pharmaceutical manufacturing. The sterile solution was then filled into vials and freeze-dried.

Which “micelle hydrodynamic diameter stability” value ([1]; […], or under refrigeration) does the source give for `CCCCCC/C=C\CCCCCCCCCC(=O)N[C@H]1[C@H](OC[C@H]2O[C@H](OP(=O)(O)O)[C@H](NC(=O)CC(=O)CCCCCCCCCCC)[C@@H](OCCCCCCCCCC)[C@@H]2O)OC(COC)[C@@H](OP(=O)(O)O)[C@@H]1OCC[C@@H](CCCCCCC)OC` (stereo partly shown) [Compound E5564] here?
Its value is “stable”.

What about the “hydrodynamic diameter (nm)” value ([1]; admixed with 5% dextrose solution (0.14 mg/mL), storage for 24 hours at 25° C.) of the same compound?
Its value is 8.1 nm.

What about the “hydrodynamic diameter (nm)” value ([1]; admixed with 5% dextrose solution (0.14 mg/mL), storage for 72 hours at 2-8° C.) of the same compound?
Its value is 7.7 nm.

What about the “hydrodynamic diameter (nm)” value ([1]; immediately following admixture with 5% dextrose solution (0.14 mg/mL)) of the same compound?
The value was 7.7 nm and 6.8 nm.

What about the “hydrodynamic diameter (nm)” value ([1]; immediately following reconstitution (0.5 mg/mL)) of the same compound?
Its value is 8.6 nm and 7.7 nm and 6.9 nm.

And the “hydrodynamic diameter (nm)” value ([1]; reconstituted solution (0.5 mg/mL), storage for 24 hours at 25° C.)?
The value was 8.2 nm.

What about the “hydrodynamic diameter (nm)” value ([1]; reconstituted solution (0.5 mg/mL), storage for 72 hours at 2-8° C.) of the same compound?
Its value is 8.3 nm.

What about the “hydrodynamic diameter (nm)” value ([1]; reconstituted solution after storage of lyophilized drug product 6 months at 2-8° C.) of the same compound?
Its value is 7.5 nm.

And the “hydrodynamic diameter (nm)” value ([1]; reconstituted solution after storage of lyophilized drug product 6 months at 25° C./60% RH)?
The value was 7.3 nm and 7.2 nm.

And the “hydrodynamic diameter (nm)” value ([1]; reconstituted solution, lyophilized drug product, initial)?
The value was 8.6 nm and 7.7 nm and 6.9 nm.

And the “hydrodynamic diameter (nm)” value ([1]; solutions prior to lyophilization)?
The value was 7.6 nm and 7.4 nm and 7.9 nm.

What about the “micelle hydrodynamic diameter stability” value [2] of the same compound?
Its value is “stable”.

And the “micelle hydrodynamic diameter stability” value [3]?
The value was “stable”.
